Consider 7 molecules from ChEMBL document CHEMBL3822386, “New sesquiterpene lactones, vernonilides A and B, from the seeds of Vernonia anthelmintica in Uyghur and their antiproliferative activities” (Bioorg Med Chem Lett, 2016).

pIC50: −log10 of the molar value.

Type in all cases: functional, cell-based
The test system of test [1] is HeLa. Nature of the test: Antiproliferation activity against human HeLa cells assessed as reduction in cell viability after 72 hrs by WST-8 assay.
Test [2] deals with A549. The test is described as follows: Antiproliferative activity against human A549 cells assessed as reduction in cell viability after 72 hrs by WST-8 assay. The following applies: A549, 72 h. For orientation: Tetrazolium dyes change colour on reduction, which living cells bring about.
Test [3] has as its system MDA-MB-231. Nature of the test: Antiproliferation activity against human MDA-MB-231 cells assessed as reduction in cell viability after 72 hrs by WST-8 assay. Conditions: MDA-MB-231, 72 h.

The pIC50 is −log10 of the IC50, conventionally taken in molar units. As for `C=C[C@@]12COC(=O)C(=C)[C@@H]1[C@H]1OC(=O)C(=C)[C@@H]1[C@@H](OC(=O)C(=C)COCC)C2`, the pIC50 in test [1] is 4.79; in test [2] it was 4.67; in test [3], 5.02.
In the same order, the values of `C=C(CO)C(=O)O[C@H]1CC(=C)[C@@H]2CC[C@@H](CO)[C@@H]2[C@H]2OC(=O)C(=C)[C@@H]21` are 7.00, 6.00 and 6.60.
Taken in the same sequence, the figures for `C=C[C@@]12COC(=O)C(=C)[C@@H]1[C@H]1OC(=O)C(=C)[C@@H]1[C@@H](OC(=O)C(=C)COC(C)=O)C2` were 5.67, 5.82 and 5.87.
Taken in the same sequence, the figures for `C=C[C@]1(C)C[C@H](OC(=O)C(=C)CO)[C@H]2C(=C)C(=O)O[C@@H]2[C@H]1C(=C)C=O` were 6.40, 6.15 and 6.46.
On to `C=C[C@@]12COC(=O)C(=C)[C@@H]1[C@H]1OC(=O)C(=C)[C@@H]1[C@@H](O)C2` [VERNOLEPIN], for which the pIC50 in test [1] is 5.66; in test [2], 4.77; in test [3] it was 5.72.
In the same order, the values of `C=C[C@@]12COC(=O)C(=C)[C@@H]1[C@H]1OC(=O)C(=C)[C@@H]1[C@@H](OC(=O)C(=C)CO)C2` [VERNODALIN] are 6.70, 6.40 and 6.52.
For the molecule `C=C[C@]1(C)C[C@H](OC(=O)C(=C)COC(C)=O)[C@H]2C(=C)C(=O)O[C@@H]2[C@H]1C(=C)C=O`, the pIC50 is 5.38 in test [1], 5.53 in test [2] and 5.49 in test [3].
